Data from patent US20060240095A1, “Pharmaceutical composition comprising a combination of metformin and a statin” (priority 2003, published 2006).
Read-outs that look alike come from different tables or passages of the source.

How the values were obtained:
[1] = system: C57BL/Ks J Rj-db (db/db) mice; test: Serum biomarkers in male db/db mice, simvastatin, metformin and combination per os for 5 days; format: in vivo, mouse; details: oral once daily
Procedure: Male 12 weeks old C57BL/Ks J Rj-db (db/db) mice (Janvier, France), weighing in the target range of 30 to 50 g, were used in the study. They were housed 5 per cage in a temperature (19.5-24.5° C.) and relative humidity (45-65%) controlled room with a 12-h light/dark cycle, with ad libitum access to filtered tap-water and irradiated pelleted laboratory chow (ref. A04, SAFE, France) throughout the study. After acclimatization, they were randomized into groups of 10 according to homogeneous glycaemia:
Group 2: Metformin 150 mg/kg
The mice were given the treatment orally once daily for 5 consecutive days at constant time.

[2] = system: Zucker obese (fa/fa) rats; details: serum, lovastatin 1 mg/kg/day and/or metformin 50 mg/kg twice a day p.o.
ZUCKER fa/fa rats = test: Serum biomarkers in Zucker obese (fa/fa) rats, simvastatin, metformin and combination per os for 5 days; details: oral
[3] = cited from earlier work
[4] = cited from earlier work; remark: listed apart in the source
[5] = pH of 7.0; cited from earlier work
[6] = T0 (three days before treatment), metformin 150 mg/kg and/or simvastatin 30 mg/kg
[7] = T5 (five days after beginning of treatment), metformin 150 mg/kg and/or simvastatin 30 mg/kg
[8] = T0 (three days before beginning of treatment)
[9] = T5 (five days after beginning of treatment)
[10] = T0 (three days before treatment), simvastatin 0.5 mg/kg and/or metformin 50 mg/kg twice a day
[11] = T5 (five days after beginning of treatment), simvastatin 0.5 mg/kg and/or metformin 50 mg/kg twice a day
[12] = water (distilled water for atorvastatin), in words
[13] = T0 (three days before treatment), simvastatin 300 mg/kg alone or with metformin 150 mg/kg
[14] = T0 (three days before treatment), simvastatin alone or with metformin 150 mg/kg
[15] = T5 (five days after beginning of treatment), simvastatin 300 mg/kg alone or with metformin 150 mg/kg
[16] = T5 (five days after beginning of treatment), simvastatin alone or with metformin 150 mg/kg
[17] = T0 (three days before treatment), simvastatin 1 mg/kg alone or with metformin 50 mg/kg twice a day
[18] = T5 (five days after beginning of treatment), simvastatin 1 mg/kg alone or with metformin 50 mg/kg twice a day

With `CN(C)C(=N)N=C(N)N` [Metformin] as the compound, how does the Glucose [1, 6] read?
Its Glucose is 37.00 mM.

What about the Insulin [1, 6] of the same compound?
The Insulin was 4.60 nM.

What about the NEFA [1, 6] of the same compound?
The NEFA was 0.654 mM.

What about the “Total Cholesterol” value [1, 6] of the same compound?
Its value is 3.07 mM.

What about the Triglycerides [1, 6] of the same compound?
Its Triglycerides is 1.30 mM.

And the Glucose [1, 7]?
Its Glucose is 23.03 mM.

What about the Insulin [1, 7] of the same compound?
Its Insulin is 2.82 nM.

And the NEFA [1, 7]?
Its NEFA is 0.798 mM.

And the “Total Cholesterol” value [1, 7]?
Its value is 3.63 mM.

And the Triglycerides [1, 7]?
Its Triglycerides is 1.34 mM.

And the Glucose [2, 8]?
Its Glucose is 8.27 mM.

And the “HDL C” value [2, 8]?
Its value is 2.08 mM.

And the Insulin [2, 8]?
The Insulin was 0.34 nM.

What about the “Total Cholesterol” value [2, 8] of the same compound?
The value was 2.55 mM.

What about the Triglycerides [2, 8] of the same compound?
Its Triglycerides is 4.08 mM.

And the Glucose [2, 9]?
Its Glucose is 7.73 mM.

What about the “HDL C” value [2, 9] of the same compound?
Its value is 2.25 mM.

And the Insulin [2, 9]?
The Insulin was 0.38 nM.

What about the “Total Cholesterol” value [2, 9] of the same compound?
Its value is 2.72 mM.

What about the Triglycerides [2, 9] of the same compound?
Its Triglycerides is 5.17 mM.

What about the Glucose (ZUCKER fa/fa rats; [10]) of the same compound?
Its Glucose is 6.69 mM.

And the “HDL C” value (ZUCKER fa/fa rats; [10])?
Its value is 2.30 mM.

And the Insulin (ZUCKER fa/fa rats; [10])?
The Insulin was 0.63 nM.

What about the “Total Cholesterol” value (ZUCKER fa/fa rats; [10]) of the same compound?
Its value is 2.47 mM.

And the Triglycerides (ZUCKER fa/fa rats; [10])?
The Triglycerides was 4.18 mM.

And the Glucose (ZUCKER fa/fa rats; [11])?
Its Glucose is 9.23 mM.

What about the “HDL C” value (ZUCKER fa/fa rats; [11]) of the same compound?
Its value is 2.16 mM.

What about the Insulin (ZUCKER fa/fa rats; [11]) of the same compound?
The Insulin was 0.71 nM.

And the “Total Cholesterol” value (ZUCKER fa/fa rats; [11])?
The value was 2.32 mM.

What about the Triglycerides (ZUCKER fa/fa rats; [11]) of the same compound?
The Triglycerides was 5.12 mM.

Which results are given for `COCc1c(C(C)C)nc(C(C)C)c(/C=C/[C@@H](O)C[C@@H](O)CC(=O)O)c1-c1ccc(F)cc1` [Cerivastatin]?
solubility in water [3, 12]: soluble; effect of food on absorption ([4]; oral administration with food): not sensitive to a food effect

What does the source list for `CC[C@H](C)C(=O)O[C@H]1C[C@H](O)C=C2C=C[C@H](C)[C@H](CC[C@@H](O)C[C@@H](O)CC(=O)O)[C@H]21` [Pravastatin]?
solubility in water ([3]; methanol and water): > 300 mg/mL; partition coefficient (octanol/water) [5]: 0.59

Which results are given for `CCC(C)(C)C(=O)O[C@H]1C[C@@H](C)C=C2C=C[C@H](C)[C@H](CC[C@@H]3C[C@@H](O)CC(=O)O3)[C@H]21` [Simvastatin]?
Glucose [1, 6]: 36.27 mM; Insulin [1, 6]: 4.60 nM; NEFA [1, 6]: 0.646 mM; Total Cholesterol [1, 6]: 2.96 mM; Triglycerides [1, 6]: 1.34 mM; Glucose [1, 13]: 36.91 mM; Total Cholesterol [1, 13]: 2.95 mM; Insulin [1, 14]: 4.86 nM; NEFA [1, 14]: 0.639 mM; Triglycerides [1, 14]: 1.44 mM; Glucose [1, 7]: 25.95 mM; Insulin [1, 7]: 2.74 nM; NEFA [1, 7]: 0.897 mM; Total Cholesterol [1, 7]: 3.33 mM; Triglycerides [1, 7]: 1.49 mM; Glucose [1, 15]: 21.18 mM; Total Cholesterol [1, 15]: 2.87 mM; Insulin [1, 16]: 2.37 nM; NEFA [1, 16]: 0.785 mM; Triglycerides [1, 16]: 0.78 mM; Glucose (ZUCKER fa/fa rats; [10]): 6.63 mM; HDL C (ZUCKER fa/fa rats; [10]): 2.32 mM; Insulin (ZUCKER fa/fa rats; [10]): 0.55 nM; Total Cholesterol (ZUCKER fa/fa rats; [10]): 2.46 mM; Triglycerides (ZUCKER fa/fa rats; [10]): 4.61 mM; Glucose (ZUCKER fa/fa rats; [17]): 7.08 mM; HDL C (ZUCKER fa/fa rats; [17]): 2.34 mM; Insulin (ZUCKER fa/fa rats; [17]): 0.63 nM; Total Cholesterol (ZUCKER fa/fa rats; [17]): 2.48 mM; Triglycerides (ZUCKER fa/fa rats; [17]): 4.67 mM; Glucose (ZUCKER fa/fa rats; [11]): 9.44 mM; HDL C (ZUCKER fa/fa rats; [11]): 2.32 mM; Insulin (ZUCKER fa/fa rats; [11]): 0.76 nM; Total Cholesterol (ZUCKER fa/fa rats; [11]): 2.46 mM; Triglycerides (ZUCKER fa/fa rats; [11]): 5.23 mM; Glucose (ZUCKER fa/fa rats; [18]): 8.35 mM; HDL C (ZUCKER fa/fa rats; [18]): 2.43 mM; Insulin (ZUCKER fa/fa rats; [18]): 0.67 nM; Total Cholesterol (ZUCKER fa/fa rats; [18]): 2.60 mM; Triglycerides (ZUCKER fa/fa rats; [18]): 5.89 mM

For `CC(C)n1c(/C=C/C(O)CC(O)CC(=O)O)c(-c2ccc(F)cc2)c2ccccc21` (stereo not drawn) [Fluvastatin], which solubility in water [3, 12] is on record?
The solubility in water was “soluble”.

And the “time to peak concentrations” value ([4]; following oral administration)?
Its value is “less than 1 hour”.

What does the source list for `CC[C@H](C)C(=O)O[C@H]1C[C@@H](C)C=C2C=C[C@H](C)[C@H](CC[C@@H]3C[C@@H](O)CC(=O)O3)[C@H]21` [Lovastatin]?
Glucose [2, 8]: 7.88 mM; HDL C [2, 8]: 2.00 mM; Insulin [2, 8]: 0.35 nM; Total Cholesterol [2, 8]: 2.38 mM; Triglycerides [2, 8]: 4.18 mM; Glucose [2, 9]: 8.21 mM; HDL C [2, 9]: 2.16 mM; Insulin [2, 9]: 0.39 nM; Total Cholesterol [2, 9]: 2.54 mM; Triglycerides [2, 9]: 4.79 mM; solubility in water [3, 12]: insoluble
